This note sets out measurements from patent publication US20260365611A1, “CRYSTALLINE SALTS OF 2-PHENYL-2-AMINOCYCLOHEXAN-1-ONE DERIVATIVES” (priority 2023, published 2026).

A word on the solubility: it is the dissolved amount per volume that the medium holds.

Structures are written as SMILES. Counter-ions that a name gives are not always drawn. Like-named read-outs stand apart in the source and are kept apart here. Some results are limits rather than exact numbers.

Holding throughout (format): physicochemical
The nature of data set [1]: Thermo-Gravimetric Analysis (TGA). As to the method: In the examples below, the solids are analyzed by XRPD to determine if they are crystalline and if so, by DSC to determine melting point and TGA to determine if hydrated/solvated.
Data set [2] in a line: Crystal form conversion on drying. The procedure:
About 0.25 mL of ethyl acetate was added to a glass vial containing about 40 mg of freebase (R)-2-(4-fluorophenyl)-2-(methylamino)cyclohexan-1-one. One molar equivalent of citric acid was added to the vial, and the contents were stirred at room temperature.

A short description of data set [3]: Approximate solubility in 20 solvents. The settings on record: for solubility: RT. The procedure: The approximate solubility of the crystalline hydrochloride salt product of Example 1 (1R HCl Form 1) was estimated in 20 solvents as follows: Approximately 10 mg of the product of Example 1 is placed into a 4.0 mL vial, to which 25 μL of solvent at RT is added, and then the vial with its contents is shaken and stirred. If no clear solution is obtained, another 25 μL of solvent is added to the vial and then the vial with its contents is shaken and stirred again. This process is repeated until 4.0 mL solvent is added, and then the contents of the vial are stirred overnight.

The nature of data set [4]: Dynamic Vapor Sorption (DVS). As to the method:
1R HCl Form 1 was analyzed by DVS (0-90-O-90-0% RH at 25 °C). The DVS behavior is shown in FIGS. 5(a) and (b), wherein 1 plots cycle 1 desorption, 2 plots cycle 2 sorption, 3 plots cycle 2 desorption, 4 plots cycle 1 sorption, 5 plots target % P/Po and 6 plots dm dry line, wherein P is the vapor pressure, Po is the saturation vapor pressure and P/Po is equivalent to % relative humidity for water.

Another data set in a line: Sublimation on heating. Particulars: heated up to 300 °C. As to the method: The Form 1 polymorph was heated up to 300 °C. […] Polymorph screening of the deuterated 1R HCl salt of Example 2 (Form 1).
Setting [5] is: drying in a vacuum oven at room temperature.

Take `CN[C@@]1(c2ccc(F)cc2)CCCCC1=O` [Phos-2, (R)-2-(4-fluorophenyl)-2-(methylamino)cyclohexan-1-one Phos-2]: the TGA weight loss entry in data set [1] (by 100 °C) was “about 0.90%”.

For the compound `CN[C@@]1(c2ccc(F)cc2)CCCCC1=O` [Mal-2, (R)-2-(4-fluorophenyl)-2-(methylamino)cyclohexan-1-one Mal-2], the TGA weight loss entry in data set [1] (by 100 °C) was “about 0.11%”.

In the case of `CN[C@@]1(c2ccc(F)cc2)CCCCC1=O` [Tar-3, (R)-2-(4-fluorophenyl)-2-(methylamino)cyclohexan-1-one Tar-3], the TGA weight loss entry in data set [1] (room temperature to 125 °C) was “about 9.95%”.

Consider `CN[C@@]1(c2ccc(F)cc2)CCCCC1=O` [Hip-1, (R)-2-(4-fluorophenyl)-2-(methylamino)cyclohexan-1-one Hip-1], for which the TGA weight loss result in data set [1] (room temperature to 100 °C) is “about 0.69%”.

On to `CN[C@@]1(c2ccc(F)cc2)CCCCC1=O` [Cit-1, (R)-2-(4-fluorophenyl)-2-(methylamino)cyclohexan-1-one Cit-1], for which the Crystal form conversion entry in data set [2] (setting [5]) is given as “transitioned to a different XRPD pattern”.

Turning to `CN[C@@]1(c2ccc(F)cc2)CCCCC1=O` [Tar-4, (R)-2-(4-fluorophenyl)-2-(methylamino)cyclohexan-1-one Tar-4], the Crystal form conversion entry in data set [2] (setting [5]) was “converted into Tar-6”.

Regarding `CN[C@@]1(c2ccc(F)cc2)CCCCC1=O` [Sulfate-1, (R)-2-(4-fluorophenyl)-2-(methylamino)cyclohexan-1-one Sulfate-1], in data set [1] (by 100 °C, listed as sulfate salt), the TGA weight loss entry was “about 0.08%”.

As for `CN[C@@]1(c2ccc(F)cc2)CCCCC1=O` [Cit-2, (R)-2-(4-fluorophenyl)-2-(methylamino)cyclohexan-1-one Cit-2], in data set [1] (room temperature to 100 °C), the TGA weight loss entry was “about 1.33%”.

For `CN[C@@]1(c2ccc(F)cc2)CCCCC1=O` [Sulfate-2, (R)-2-(4-fluorophenyl)-2-(methylamino)cyclohexan-1-one Sulfate-2], in data set [2] (wet cake dried at room temperature), the Crystal form conversion entry is given as “a different XRPD diffractogram was obtained”.

Turning to `CN[C@@]1(c2ccc(F)cc2)CCCCC1=O` [Tar-5, (R)-2-(4-fluorophenyl)-2-(methylamino)cyclohexan-1-one Tar-5], in data set [1] (by 100 °C), the TGA weight loss entry was “about 0.26%”.

For `CN[C@@]1(c2ccc(F)cc2)CCCCC1=O` [Tar-2, (R)-2-(4-fluorophenyl)-2-(methylamino)cyclohexan-1-one Tar-2], the Crystal form conversion result in data set [2] (setting [5]) is “transitioned into Tar-5”.

As for `CN[C@@]1(c2ccc(F)cc2)CCCCC1=O` [1R HCl Form 1, (R)-2-(4-fluorophenyl)-2-(methylamino)cyclohexan-1-one hydrochloride Form 1], the solubility in data set [3] (1,4-dioxane, organic solvent or mixture, 1,4-Dioxane, read-out: Solubility) was 2.9 to 3.3 mg/mL; in data set [3] (2-methf, organic solvent or mixture, 2-MeTHF, read-out: Solubility) it was less than 2.6 mg/mL; in data set [3] (DCM), 194 to 388 mg/mL; in data set [3] (DMF), 192 to 384 mg/mL; in data set [3] (DMSO), greater than 395 mg/mL; in data set [3] (EtOH), 215 to 431 mg/mL. For the same compound, the solubility is greater than 486 mg/mL in data set [3] (MeOH); greater than 464 mg/mL in data set [3] (Water); 8.8 to 9.7 mg/mL in data set [3] (acetone, organic solvent or mixture, Acetone, read-out: Solubility); 32 to 38 mg/mL in data set [3] (acn, organic solvent or mixture, ACN, read-out: Solubility); greater than 300 mg/mL in data set [3] (dcm, organic solvent or mixture, DCM, read-out: Solubility); greater than 300 mg/mL in data set [3] (dmf, organic solvent or mixture, DMF, read-out: Solubility). The solubility in data set [3] (dmso, organic solvent or mixture, DMSO, read-out: Solubility) is greater than 300 mg/mL; in data set [3] (etoac, organic solvent or mixture, EtOAc, read-out: Solubility), less than 2.6 mg/mL; in data set [3] (etoh, organic solvent or mixture, EtOH, read-out: Solubility) it was greater than 300 mg/mL; in data set [3] (heptane, organic solvent or mixture, Heptane, read-out: Solubility), less than 2.7 mg/mL; in data set [3] (ipa, organic solvent or mixture, IPA, read-out: Solubility), 50 to 67 mg/mL; in data set [3] (ipac, read-out: Solubility) it was less than 2.4 mg/mL. Also, the solubility in data set [3] (mek, read-out: Solubility) is 3.1 to 3.7 mg/mL; in data set [3] (meoh, organic solvent or mixture, MeOH, read-out: Solubility) it was greater than 300 mg/mL; in data set [3] (mibk, read-out: Solubility), less than 2.7 mg/mL; in data set [3] (mtbe, organic solvent or mixture, MTBE, read-out: Solubility) it was less than 2.5 mg/mL; in data set [3] (npa, read-out: Solubility), 51 to 69 mg/mL; in data set [3] (thf, organic solvent or mixture, THF, read-out: Solubility), less than 3 mg/mL. For the same compound, the solubility in data set [3] (toluene, organic solvent or mixture, Toluene, read-out: Solubility) is less than 2.7 mg/mL; in data set [3] (water, read-out: Solubility) it was greater than 300 mg/mL. The “Solubility (in words)” value in data set [3] (esters, ketones, ethers, and alkanes) is recorded as “Limited or no solubility”. Also, in data set [4] (25 °C, 0-90-0-90-0% RH), the “DVS moisture sorption behavior” value is on record as “absorbs significant moisture above ~80% RH but readily releases the moisture at lower humidity”. Further, in data set [4] (post-DVS, kept at 0% RH for 3 days), the “Crystal form of post-DVS sample” value is on record as “same crystal form as the starting solids”. In data set [1] (heated from room temperature to 100 °C), the “Hydrate/solvate state from TGA” value was “not a hydrate or solvate”. In data set [1] (room temperature to 100 °C), this compound registered a TGA weight loss of 0.34%. Further, the Sublimation entry in “Sublimation on heating” is “can be sublimed from a solid phase to gas phase without passing through the liquid phase”. The “Form of material recovered from sublimation” value in the data set “Sublimation on heating” (XRPD) is “same XRPD pattern as 1R HCl Form 1”.

`CN[C@@]1(c2ccc(F)cc2)CCCCC1=O` [MSA-1, (R)-2-(4-fluorophenyl)-2-(methylamino)cyclohexan-1-one MSA-1]: in data set [1] (by 100 °C), the TGA weight loss entry is recorded as “about 0.01%”.

On to `CN[C@@]1(c2ccc(F)cc2)CCCCC1=O` [Phos-1, (R)-2-(4-fluorophenyl)-2-(methylamino)cyclohexan-1-one Phos-1], for which the TGA weight loss result in data set [1] (by 100 °C) is “about 0.11%”.

Turning to `CN[C@@]1(c2ccc(F)cc2)CCCCC1=O` [Mal-1, (R)-2-(4-fluorophenyl)-2-(methylamino)cyclohexan-1-one Mal-1], in data set [1] (by 100 °C), the TGA weight loss result is “about 0.16%”.

For the compound `CN[C@@]1(c2ccc(F)cc2)CCCCC1=O` [Mali-1, (R)-2-(4-fluorophenyl)-2-(methylamino)cyclohexan-1-one-L-Mali-1], the TGA weight loss entry in data set [1] (room temperature to 100 °C) is recorded as “about 0.70%”.

For the compound `CN[C@@]1(c2ccc(F)cc2)CCCCC1=O` [Tar-6, (R)-2-(4-fluorophenyl)-2-(methylamino)cyclohexan-1-one Tar-6], the TGA weight loss result in data set [1] (by 100 °C) was “about 10.67%”.

In the case of `CN[C@@]1(c2ccc(F)cc2)CCCCC1=O` [Sulfate-3, (R)-2-(4-fluorophenyl)-2-(methylamino)cyclohexan-1-one Sulfate-3], the Crystal form conversion result in data set [2] (further dried with heating at 40 °C) is given as “a different XRPD diffractogram was obtained”.

`CN[C@@]1(c2ccc(F)cc2)CCCCC1=O` [Fum-1, (R)-2-(4-fluorophenyl)-2-(methylamino)cyclohexan-1-one Fum-1]: in data set [1] (by 100 °C), the TGA weight loss entry is given as “about 0.66%”.

For the compound `CN[C@@]1(c2ccc(F)cc2)CCCCC1=O` [Glyc-1, (R)-2-(4-fluorophenyl)-2-(methylamino)cyclohexan-1-one Glyc-1], the TGA weight loss entry in data set [1] (room temperature to 100 °C) is listed as “about 1.89%”.
